One assay addresses SOS1/KRAS-G12D (Homo sapiens (Human), UniProt Q07889). The assay can be described thus: SOS1/KRAS-G12D binding inhibition assay (AlphaScreen). Particulars: GST-SOS1 and 6*His KRAS-G12D, read-out: KrasG12D/SOS1 binding IC50. The protocol:
Example 22: SOS1/KRAS-G12D Binding Inhibition Assay
SOS1 binding affinity of candidate compounds was measured by monitoring the interaction of SOS1 with KRAS-G12D in the presence of the test compound. Briefly, 5 nM GST tagged SOS1 proteins (final concentration) were pre-incubated with 50 nM 6*His tagged KRAS-G12D proteins (final concentration) in an assay buffer containing 10 mM HEPES, pH 7.4, 150 mM NaCl, 1 mM DTT, 5 mM MgCl2, 0.1% Tween-20, and 0.05% BSA for 30 minutes. The test compounds in 2% DMSO (final concentration) at various concentrations were then added to the reaction mixture and incubated for another 30 minutes at 4° C. 5 ug/ml GSH AlphaScreen donor beads (PerkinElmer, 6765300) and 5 ug/ml nickel chelate (Ni-NTA) AlphaScreen acceptor beads (PerkinElmer, 6760619C) (final concentrations) were then added to the mixture. After an incubation of 2 hours at 4° C., the fluorescent signals were obtained on the EnVision® 2105 Multilabel Plate Reader (PerkinElmer).
Raw AlphaScreen data were converted to a percentage of inhibition (relative to DMSO) using the following equations: • a) For a given test compound concentration X:
Signal (X)=Signal (SOS1 & KRAS-G12D & compound)-Signal (buffer & KRAS-G12D & compound)
Percentage of inhibition at concentration X=[1−Signal (X)/Signal (DMSO)]*100% b)
The IC50 values were determined by nonlinear regression of plots of [inhibitor] vs. percentage of inhibition with variable slope, analyzed using GraphPad Prism 9.
For orientation: In Alpha technology, singlet oxygen from a donor bead excites a nearby acceptor bead.

A further assay deals with K562 cells. In words: Cell growth inhibition of K562 cells (CellTiter-Glo). It is filed as cell-based. Particulars: Homo sapiens, 120 h, 5 days. The protocol: Example 24: Cell Growth Inhibition of K562 Cells
K562 cells were obtained from American Type Culture Collection (ATCC). For cell growth assay, K562 cells were seeded in 96-well plates at 1000 cells/well in 90 μl of RPM11640 growth medium containing 10% FBS and 1% Penicillin Streptomycin, and then incubated at 37° C. for 1 hour. The test compound was administered to the cells by using 1000× compound stock solution prepared in DMSO at various concentrations. 1000× compound stock solution was first diluted in culturing medium to 10×, then 10 uL compound medium was added to each well in the cell plates. After administration of the compound, the cells were then incubated at 37° C. for 5 days. Upon completion, the plates were equilibrated at room temperature for approximately 10 minutes. 100 ul of CellTiter-Glo® Reagent (Promega) was added to each well. The plates were then incubated at room temperature for 10 minutes and luminescence was recorded by EnSpire plate reader (PerkinElmer).
On the technique in general: Cellular ATP, detected with luciferase, serves as a proxy for viable cell number.

Assay [1] deals with Phospho-ERK1/2 in DLD1 cells. In words: Phospho-ERK1/2 expression inhibition in DLD1 cells. It is filed as cell-based. The note with it: Homo sapiens, DLD-1, 4 hours, read-out: DLD1 pERK IC50. On the procedure:
Example 23: Phospho-ERK1/2 Expression Inhibition in DLD1 Cells
DLD1 cells were obtained from American Type Culture Collection (ATCC). DLD1 cells were plated in 96-well plates (VWR #10062-900, or Corning #3904) in 90 uL culture medium at a density of 15,000 cells/well in the RPM11640 growth medium containing 10% FBS and 1% Penicillin Streptomycin, and then incubated at 37° C. overnight. The following day, the test compound was administered to the cells by using 1000×x compound stock solution prepared in DMSO at various concentrations. 1000× compound stock solution was first diluted in culturing medium to 10×, then 10 uL compound medium was added to each well in the cell plates. After administration of the compound, the cells were then incubated at 37° C. for 4 hours. Upon completion, the cells were washed with PBS briefly. 150 uL/well of 4% formaldehyde was added and the plates were incubated at room temperature for 20 mins. The cells were washed with PBS briefly, and permeabilized with 150 uL/well of ice cold 100% methanol for 10 mins. The cells were washed with PBS briefly and blocked with 100 uL/well LI-COR blocking buffer for 1 hr at room temperature with gentle shaking. The cells were incubated overnight at 4° C. with 50 uL primary antibody rabbit anti-Phospho-ERK1/2 (1: 500, Cell Signaling, #4370) diluted in Intercept Blocking Buffer (LI-COR, #927-60001) containing 0.1% Tween 20. The next day, the cells were washed with 200 uL PBS containing 0.1% Tween 20, 5×5 mins at room temperature with gentle shaking, and incubated with 50 uL secondary antibody, IRDye® 800CW Goat anti-Rabbit IgG (LI-COR, #926-32211), 1:1000, in LI-COR blocking buffer with 0.2% Tween 20 for 1 hr at room temperature with gentle shaking. The cells were washed with 200 uL PBS containing 0.1% Tween 20, 5×5 mins at room temperature with gentle shaking. The cells were washed with PBS for 5 mins. 100 uL fresh PBS was added to each well and the plates were imaged on a LI-COR Odyssey CLX plate reader.

Sequence of SOS1/KRAS-G12D (Q07889 564-1049 limits assumed): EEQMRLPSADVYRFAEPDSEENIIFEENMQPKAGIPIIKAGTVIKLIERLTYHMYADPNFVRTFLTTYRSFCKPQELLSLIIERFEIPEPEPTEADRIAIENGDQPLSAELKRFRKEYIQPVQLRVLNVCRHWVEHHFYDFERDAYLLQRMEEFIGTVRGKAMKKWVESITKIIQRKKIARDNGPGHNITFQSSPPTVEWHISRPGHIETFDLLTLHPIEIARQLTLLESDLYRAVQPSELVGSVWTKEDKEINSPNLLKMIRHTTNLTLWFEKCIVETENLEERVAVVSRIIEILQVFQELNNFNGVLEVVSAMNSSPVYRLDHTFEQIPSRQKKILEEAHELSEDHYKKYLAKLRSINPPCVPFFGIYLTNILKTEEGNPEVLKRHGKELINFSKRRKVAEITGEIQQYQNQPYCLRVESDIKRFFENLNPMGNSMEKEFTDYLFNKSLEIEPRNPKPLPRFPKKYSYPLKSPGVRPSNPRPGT

As to `Cc1c([C@@H](C)Nc2ccnc3ccc(N4CCn5c(C)nnc5C4)cc23)cccc1C(F)(F)F` [Compound 45, (R)-N-(1-(2-methyl-3-(trifluoromethyl)phenyl)ethyl)-6-(3-methyl-5,6-dihydro-[1,2,4]triazolo[4,3-a]pyrazin-7(8H)-yl)quinolin-4-amine], the IC50 at SOS1/KRAS-G12D was 0.01 to 0.1 µM; in assay [1], more than 0.5 µM. Further, in the assay on K562 cells, the GI50 lay in the range of 0.1 to 0.5 µM.

With `CC(=O)N1C[C@H](C)N(c2ccc3nccc(N[C@H](C)c4cccc(C(F)(F)F)c4C)c3c2)C[C@H]1C` [Compound 66, 1-((2R,5S)-2,5-dimethyl-4-(4-(((R)-1-(2-methyl-3-(trifluoromethyl)phenyl)ethyl)amino)quinolin-6-yl)piperazin-1-yl)ethan-1-one], the IC50 at SOS1/KRAS-G12D is more than 0.1 µM; in assay [1], more than 0.5 µM. Moreover, the GI50 with K562 cells was more than 0.5 µM.

Regarding `COC1(c2ccc3nccc(N[C@H](C)c4cccc(C(F)(F)F)c4C)c3c2)CCN(C(=O)C(C)C)CC1` [Compound 80, (R)-1-(4-methoxy-4-(4-((1-(2-methyl-3-(trifluoromethyl)phenyl)ethyl)amino)quinolin-6-yl)piperidin-1-yl)-2-methylpropan-1-one], the IC50 was 0.01 to 0.1 µM on SOS1/KRAS-G12D and more than 0.5 µM in assay [1]. The same compound gave a GI50 in the assay on K562 cells of 0.1 to 0.5 µM.

As to `C[C@@H](Nc1ccnc2ccc(N3CC[C@@H](N)C3)cc12)c1cccc(C(F)F)c1F` [Compound 9, 6-((R)-3-aminopyrrolidin-1-yl)-N-((R)-1-(3-(difluoromethyl)-2-fluorophenyl)ethyl)quinolin-4-amine], the IC50 at SOS1/KRAS-G12D was not above 0.01 µM; in assay [1], 0.15 to 0.5 µM. The compound also yielded a GI50 with K562 cells of 0.1 to 0.5 µM.

Turning to `COC1(c2ccc3nccc(N[C@H](C)c4cccc(C(F)(F)F)c4C)c3c2)CCN(C(C)=O)CC1` [Compound 79, (R)-1-(4-methoxy-4-(4-((1-(2-methyl-3-(trifluoromethyl)phenyl)ethyl)amino)quinolin-6-yl)piperidin-1-yl)ethan-1-one], the IC50 at SOS1/KRAS-G12D was in the range of 0.01 to 0.1 µM; in assay [1], 0.15 to 0.5 µM. For the same compound, the GI50 with K562 cells lay in the range of 0.1 to 0.5 µM.

On to `Cc1c([C@@H](C)Nc2ccnc3ccc(N4CCN(c5cnn(C)c5)CC4)cc23)cccc1C(F)(F)F` [Compound 24, (R)-6-(4-(1-methyl-1H-pyrazol-4-yl)piperazin-1-yl)-N-(1-(2-methyl-3-(trifluoromethyl)phenyl)ethyl)quinolin-4-amine], for which the results for the IC50 (on SOS1/KRAS-G12D; in assay [1]) were more than 0.1 µM and more than 0.5 µM, respectively. In the assay on K562 cells, the GI50 is 0.1 to 0.5 µM.

For `Cc1c([C@@H](C)Nc2ccnc3ccc(N4CCC(N5CCC5)CC4)cc23)cccc1C(F)(F)F` [Compound 65, (R)-6-(4-(azetidin-1-yl)piperidin-1-yl)-N-(1-(2-methyl-3-(trifluoromethyl)phenyl)ethyl)quinolin-4-amine], the IC50 on SOS1/KRAS-G12D was 0.01 to 0.1 µM; in assay [1] it was more than 0.5 µM. Further, in the assay on K562 cells, the GI50 was more than 0.5 µM.

With `C[C@@H](Nc1ccnc2ccc(N3CCN(C(=O)C4COC4)CC3)cc12)c1cccc(C(F)F)c1F` [Compound 16, (R)-(4-(4-((1-(3-(difluoromethyl)-2-fluorophenyl)ethyl)amino)quinolin-6-yl)piperazin-1-yl)(oxetan-3-yl)methanone], the IC50 was not above 0.01 µM at SOS1/KRAS-G12D and not above 0.15 µM in assay [1]. The compound also gave a GI50 in the assay with K562 cells not above 0.1 µM.

For the compound `Cc1c([C@@H](C)Nc2ccnc3ccc(N4CC5CC(C4)O5)cc23)cccc1C(F)(F)F` [Compound 19, 6-(6-oxa-3-azabicyclo[3.1.1]heptan-3-yl)-N-((R)-1-(2-methyl-3-(trifluoromethyl)phenyl)ethyl)quinolin-4-amine], the IC50 on SOS1/KRAS-G12D was more than 0.1 µM; in assay [1], more than 0.5 µM. Moreover, the 50% growth inhibitory concentration (GI50) with K562 cells fell in the range of 0.1 to 0.5 µM.

As for `Cc1c([C@@H](C)Nc2ccnc3ccc(N4CCNCC4)cc23)cccc1C(F)(F)F` [Compound 5, (R)-N-(1-(2-methyl-3-(trifluoromethyl)phenyl)ethyl)-6-(piperazin-1-yl)quinolin-4-amine], the IC50 on SOS1/KRAS-G12D lay within 0.01 to 0.1 µM. The compound also gave a GI50 in the assay on K562 cells of more than 0.5 µM.

Turning to `CC(=O)N1CC[C@@](F)(c2ccc3nccc(N[C@H](C)c4cccc(C(F)F)c4F)c3c2)C1` [Compound 86, 1-((R)-3-(4-(((R)-1-(3-(difluoromethyl)-2-fluorophenyl)ethyl)amino)quinolin-6-yl)-3-fluoropyrrolidin-1-yl)ethan-1-one], the IC50 at SOS1/KRAS-G12D was more than 0.1 µM. Besides, the GI50 with K562 cells was more than 0.5 µM.

For `Cc1c([C@@H](C)Nc2c(C#N)cnc3ccc(N4CCNCC4)cc23)cccc1C(F)(F)F` [Compound 2, (R)-4-((1-(2-methyl-3-(trifluoromethyl)phenyl)ethyl)amino)-6-(piperazin-1-yl)quinoline-3-carbonitrile], the IC50 on SOS1/KRAS-G12D was more than 0.1 µM. Moreover, the GI50 in the assay on K562 cells was more than 0.5 µM.

Compound `Cc1c([C@@H](C)Nc2ccnc3ccc(N4CCNC[C@H]4C)cc23)cccc1C(F)(F)F` [Compound 68, N-((R)-1-(2-methyl-3-(trifluoromethyl)phenyl)ethyl)-6-((R)-2-methylpiperazin-1-yl)quinolin-4-amine] displayed a GI50 in the assay with K562 cells of more than 0.5 µM. Further, the IC50 in assay [1] was more than 0.5 µM.

`[2H]C([2H])([2H])O[C@]1(c2ccc3nccc(N[C@H](C)c4cccc(C(F)F)c4F)c3c2)CCN(C(C)=O)C1` [Compound 93, 1-((S)-3-(4-(((R)-1-(3-(difluoromethyl)-2-fluorophenyl)ethyl)amino)quinolin-6-yl)-3-(methoxy-d3)pyrrolidin-1-yl)ethan-1-one] registered a GI50 with K562 cells not above 0.1 µM. Further, the IC50 in assay [1] was not above 0.15 µM.

For the compound `CC(=O)N[C@@H]1CCN(c2ccc3ncc(C#N)c(N[C@H](C)c4cccc(C(F)F)c4F)c3c2)C1` [Compound 7, N-((R)-1-(3-cyano-4-(((R)-1-(3-(difluoromethyl)-2-fluorophenyl)ethyl)amino)quinolin-6-yl)pyrrolidin-3-yl)acetamide], on SOS1/KRAS-G12D, the IC50 is more than 0.1 µM. The GI50 in the assay with K562 cells is more than 0.5 µM.

Take `Cc1c([C@@H](C)Nc2ccnc3ccc(N4CCOCC4)cc23)cccc1C(F)(F)F` [Compound 37, (R)-N-(1-(2-methyl-3-(trifluoromethyl)phenyl)ethyl)-6-morpholinoquinolin-4-amine]: the GI50 in the assay on K562 cells lay within 0.1 to 0.5 µM. Also, in assay [1], the IC50 is 0.15 to 0.5 µM.

For `[2H]C([2H])([2H])O[C@@]1(c2ccc3nccc(N[C@H](C)c4cccc(C(F)F)c4F)c3c2)CCN(C(C)=O)C1` [Compound 94, 1-((R)-3-(4-(((R)-1-(3-(difluoromethyl)-2-fluorophenyl)ethyl)amino)quinolin-6-yl)-3-(methoxy-d3)pyrrolidin-1-yl)ethan-1-one], in the assay on K562 cells, the GI50 is not above 0.1 µM. For the same compound, the IC50 in assay [1] is not above 0.15 µM.

With `CC(=O)N1CCN(c2ccc3nccc(N[C@H](C)c4cccc(C(F)(F)F)c4C)c3c2)[C@H](C)C1` [Compound 67, 1-((R)-3-methyl-4-(4-(((R)-1-(2-methyl-3-(trifluoromethyl)phenyl)ethyl)amino)quinolin-6-yl)piperazin-1-yl)ethan-1-one], in the assay on K562 cells, the GI50 was more than 0.5 µM. Moreover, the IC50 in assay [1] is more than 0.5 µM.

What is called GI50 is the concentration at which growth is held to half of that of the control.

The values are drawn from patent US20240208909A1, “SUBSTITUTED QUINOLINE DERIVATIVES HAVING SOS1 INHIBITION ACTIVITIES AND USES THEREOF” (Accutar Biotechnology Inc., priority 2022, published 2024).
